Reference: patent US11045464B2, “Parenteral formulations of dopamine agonists” (VeroScience LLC, priority 2007, dated 2021)

Experiment: Stability of SKF-38393 in solution
Format: physicochemical
Source text: Formulation 22S was a combination of […], employing the 11S base formulation with the two active agents. […] A short study has been run to ensure the stability of SKF-38393. […] In contrast, in alcohol solution, the API decomposes rapidly, with >5% of the API already lost within the first hour.

SMILES: Oc1cc2c(cc1O)C(c1ccccc1)CNCC2 (centres unmarked) [SKF-38393]
- API lost (decomposition) (in alcohol solution, within the first hour): > 5%
- decomposition of SKF-38393 (in water buffered by the acidic acid, within 12 h): no decomposition
